The source of these data is patent publication US20190216707A1, “COMPOSITION FOR PREVENTING HAIR LOSS AND PROMOTING HAIR GROWTH, COMPRISING PHYTOESTROGEN AS AN ACTIVE INGREDIENT” (STEMORE CO., LTD., priority 2016, published 2019).

The test system of test [1] is immortalized dermal papilla cells (I-DPCs). Description: Proliferation of immortalized dermal papilla cells (Incucyte, phase object confluence). Format: cell-based, Human. Conditions: FIGS. 1A to 1D; for effect on the proliferation of I-DPCs (phase object confluence, %): 0.1 μM, 1 μM or 10 μM, cultured for 72 hours; for proliferation of I-DPCs: concentration of 1 μM to 10 μM. The procedure: Human-derived immortalized dermal papilla cells (I-DPCs; donated by Professor Sungyoung Kwan of the College of Medicine at Kyungpook National University; Shin, Seung-Hyun, et al. “Establishment and characterization of an immortalized human dermal papilla cell line.” BMB reports 44.8 (2011): 512-516.) were cultured in Follicle Dermal Papilla Cell Growth Medium supplemented with 10% fetal bovine serum […] and penicillin-streptomycin antibiotics for 3 days to prepare a dermal papilla cell line. On day 3 of culture, the cells cultured in the culture dish were transferred to a 96-well plate, and when the cells were attached to the bottom of each well, each well was treated with DO-10B, DO-14, DO-17, and DO-20 at a concentration of 10 μM and cultured for 48 hours.
In particular, the I-DP cell line was prepared by culturing under the same conditions as in Example <2-1>, and the cells were treated with DO-10B, DO-14, DO-17, and DO-20 at a concentration of 0.1 μM, 1 μM, or 10 μM in a cell culture medium, and then cultured for a total of 72 hours. At 0, 12, 24, 36, 48, 60, and 72 hours after the start of culture, the degree of saturation of cells attached to the bottom of each well (phase object confluence, %) was confirmed using the Incucyte System™.

Test [2] deals with C3H/HeNCrljOri mice. Description: Hair growth promotion on the hair-removed back of mice. Format: in vivo. To be noted: PBS containing 1 μM compound subcutaneously injected, 2 weeks; for hair cycle induction / hair growth, visually confirmed, compared to the non-administered group: FIG. 2; for hair weight compared with the minoxidil-administered control / hair weight relative to the non-administered control: FIG. 3. The text has this:
In particular, to confirm the effects of DO-10B, DO-14, DO-17, and DO-20 on hair growth promotion when applied and subcutaneously administered, 6-week-old male C3H/HeNCrljOri mice were purchased and divided into a negative control, a positive control (minoxidil-treated group), and groups treated with DO-10B, DO-14, DO-17, and DO-20 to be used for experiments. To confirm a hair growth effect in the mice, when the mice became 6 weeks of age, first, the hair of the back of each mouse was removed using a clipper.
To confirm the effects of DO-10B, DO-14, DO-17, and DO-20 on hair growth promotion when subcutaneously injected, PBS containing 1 μM DO-10B, DO-14, DO-17, and DO-20 was subcutaneously injected into the hair-removed backs of mice at a daily cycle of 2 to 3 times, and the mice were raised for a total of 2 weeks. After the end of the rearing period, the hair of the back of each mouse was removed again using a mouse clipper, and the weight of the collected hair was measured to compare the hair weights of the non-administered group and the minoxidil-administered group.

Consider `COc1ccc2c(c1)OC1c3ccc(O)cc3OCC21` (stereo not drawn) [DO-20, 3-hydroxy-9-methoxypterocarpan], for which, in test [1], the “effect on the proliferation of I-DPCs (phase object confluence, %)” value (“effect … (phase object confluence, %)” below) is recorded as “concentration-dependent manner” and the “proliferation of I-DPCs” value is “significantly promoted”. Moreover, in test [2], the hair cycle induction entry was “induced to the anagen phase”; the “hair growth, visually confirmed, compared to the non-administered group” value was “significant hair growth”; the “hair weight compared with the minoxidil-administered control” value is on record as “equal to or greater than that of the minoxidil-administered control”; the “hair weight relative to the non-administered control” value was “about two-fold or more”.
As for (3R)-5′-methoxyvestiol [DO-14], in test [1], the “effect … (phase object confluence, %)” value was “concentration-dependent manner” and the “proliferation of I-DPCs” value is recorded as “significantly promoted”. Also, in test [2], the hair cycle induction entry is reported as “induced to the anagen phase”; the “hair growth, visually confirmed, compared to the non-administered group” value was “significant hair growth”; the “hair weight compared with the minoxidil-administered control” value was “equal to or greater than that of the minoxidil-administered control”; the “hair weight relative to the non-administered control” value is recorded as “about two-fold or more”.
On to `COc1cc2c(cc1O)[C@@H]1COc3cc(O)ccc3[C@@H]1O2` [DO-17, (6aR, 11aR)-3,8-dihydroxy-9-methoxypterocarpan], for which, in test [1], the “effect … (phase object confluence, %)” value is “concentration-dependent manner” and the “proliferation of I-DPCs” value was “significantly promoted”. Further, in test [2], the hair cycle induction result was “induced to the anagen phase”; the “hair growth, visually confirmed, compared to the non-administered group” value is listed as “significant hair growth”; the “hair weight compared with the minoxidil-administered control” value is reported as “equal to or greater than that of the minoxidil-administered control”; the “hair weight relative to the non-administered control” value was “about two-fold or more”.
With violanone [DO-10B], in test [1], the “effect … (phase object confluence, %)” value is recorded as “concentration-dependent manner” and the “proliferation of I-DPCs” value is on record as “significantly promoted”. In test [2], the hair cycle induction result is “induced to the anagen phase”; the “hair growth, visually confirmed, compared to the non-administered group” value was “significant hair growth”; the “hair weight compared with the minoxidil-administered control” value is reported as “equal to or greater than that of the minoxidil-administered control”; the “hair weight relative to the non-administered control” value is “about two-fold or more”.
